Structures can show the parent of a compound that is named as a salt.
Biological target: RET kinase (Homo sapiens, UniProt P07949)
Assay: HTRF KinEASE-TK (TR-FRET) kinase assay with recombinant RET, […] ATP
Format: biochemical

RET kinase, sequence (P07949 29-1114): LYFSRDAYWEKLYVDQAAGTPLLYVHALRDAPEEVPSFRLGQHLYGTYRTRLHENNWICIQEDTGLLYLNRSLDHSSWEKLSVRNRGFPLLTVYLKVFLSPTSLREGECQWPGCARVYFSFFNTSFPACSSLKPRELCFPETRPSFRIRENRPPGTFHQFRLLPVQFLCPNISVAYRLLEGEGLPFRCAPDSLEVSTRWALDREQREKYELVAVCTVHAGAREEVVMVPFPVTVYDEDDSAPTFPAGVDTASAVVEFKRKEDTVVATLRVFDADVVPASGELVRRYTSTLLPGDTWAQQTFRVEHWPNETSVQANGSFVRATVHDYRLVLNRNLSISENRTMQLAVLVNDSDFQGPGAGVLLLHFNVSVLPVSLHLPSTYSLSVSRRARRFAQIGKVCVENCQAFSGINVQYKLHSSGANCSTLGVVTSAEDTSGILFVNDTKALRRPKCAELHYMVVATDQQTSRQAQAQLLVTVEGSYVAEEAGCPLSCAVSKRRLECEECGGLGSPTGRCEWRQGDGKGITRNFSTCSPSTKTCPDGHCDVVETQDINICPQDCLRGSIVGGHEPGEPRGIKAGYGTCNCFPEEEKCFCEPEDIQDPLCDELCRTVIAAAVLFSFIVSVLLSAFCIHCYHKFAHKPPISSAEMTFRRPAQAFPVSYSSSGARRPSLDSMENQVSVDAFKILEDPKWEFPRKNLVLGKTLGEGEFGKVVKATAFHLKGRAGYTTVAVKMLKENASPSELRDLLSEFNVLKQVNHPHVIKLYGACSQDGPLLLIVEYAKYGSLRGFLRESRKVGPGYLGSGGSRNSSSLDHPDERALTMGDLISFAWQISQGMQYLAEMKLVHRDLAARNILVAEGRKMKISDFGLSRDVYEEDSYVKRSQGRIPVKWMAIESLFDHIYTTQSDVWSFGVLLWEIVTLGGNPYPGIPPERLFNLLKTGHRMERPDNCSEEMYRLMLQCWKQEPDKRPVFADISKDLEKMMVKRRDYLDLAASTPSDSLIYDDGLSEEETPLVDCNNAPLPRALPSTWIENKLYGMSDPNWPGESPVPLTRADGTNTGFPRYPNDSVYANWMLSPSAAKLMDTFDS

IC50: 4.42 nM
SMILES: O=C1Nc2ccccc2/C1=C1/Nc2ccccc2/C1=N\OCCN1CCNCC1 [LDD-2633, (2Z,3E)-3-((2-(piperazin-1-yl)ethoxy)imino)-[2,3′-biindolinylidene]-2′-one hydrochloride]
